{
  "source": "patent US8937048B2",
  "about": "“Anti-angiogenic compounds” (Covx Technologies Ireland, Limited, priority 2008, dated 2015)",
  "note": "Where a SMILES comes first, the peptide text is derived from it. Bridges are numbered along the chain shown (N, C = ends). [ ]: non-standard residue; d: D form. Nle = CCCC[C@H](N)C(=O)O",
  "data": [
    {"target": "T1, recombinant human VEGF165 (Homo sapiens, UniProt P15692)", "T1 sequence (P15692 27-191 isoform P15692-4)": "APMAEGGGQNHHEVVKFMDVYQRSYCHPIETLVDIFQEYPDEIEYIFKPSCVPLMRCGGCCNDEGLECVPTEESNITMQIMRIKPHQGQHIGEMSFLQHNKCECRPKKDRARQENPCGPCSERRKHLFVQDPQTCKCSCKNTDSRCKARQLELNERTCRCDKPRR", "experiment": "VEGF peptide binding assay (competition ELISA, VEGF165 binding to coated VEGFR2/Fc)", "summary_of_the_method": "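VEGFR2/Fc was coated, and peptides (0.128–10,000 nM, N-acetyl, C-amide) were preincubated with 25 ng/ml human VEGF165 and added for 1 h at RT. Bound VEGF was detected with biotinylated anti-VEGF, streptavidin-HRP and TMB at OD450. IC50 came from sigmoid dose-response fits of OD450 versus concentration.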", "units": {"IC50": "nM"}, "values": [
      {"smiles": "CCCC[C@H](NC(=O)[C@H](CC(C)C)NC(=O)[C@H](CCCNC(=N)N)NC(=O)[C@H](CCC(=O)O)NC(=O)[C@H](Cc1ccccc1)NC(=O)[C@@H]1CSSC[C@H](NC(=O)[C@H](CC(N)=O)NC(=O)[C@@H]2CCCN2C(=O)[C@H](CCC(=O)O)NC(=O)[C@@H](NC(C)=O)C(C)C)C(=O)N[C@@H](CC(=O)O)C(=O)N[C@@H]([C@@H](C)CC)C(=O)N[C@@H](Cc2c[nH]cn2)C(=O)N[C@@H](C(C)C)C(=O)N[C@@H](CCSC)C(=O)N[C@@H](Cc2c[nH]c3ccccc23)C(=O)N[C@@H](C(C)C)C(=O)N[C@@H](Cc2c[nH]c3ccccc23)C(=O)N[C@@H](CCC(=O)O)C(=O)N1)C(=O)N[C@@H](CCCCN)C(N)=O", "note": "[Compound 54, V-E-P-N-C-D-I-H-V-M-W-V-W-E-C-F-E-R-L-(Nle)-K] (Ac-VEPNCDIHVMWVWECFERL[Nle]K-NH2; disulfide 5-15 (inferred))", "IC50": 28.6},
      {"smiles": "CC[C@H](C)[C@@H]1NC(=O)[C@H](CC(=O)O)NC(=O)[C@@H](NC(=O)[C@H](CC(N)=O)NC(=O)[C@@H]2CCCN2C(=O)[C@H](CCC(=O)O)NC(=O)[C@@H](NC(C)=O)C(C)C)CSSC[C@@H](C(=O)N[C@@H](Cc2ccccc2)C(=O)N[C@@H](CCC(=O)O)C(=O)N[C@@H](CCCNC(=N)N)C(=O)N[C@@H](CC(C)C)C(=O)N[C@@H](Cc2ccc(O)cc2)C(=O)N[C@@H](CCCNC(=N)N)C(=O)N[C@@H](CCC(=O)O)C(=O)N[C@@H](CC(C)C)C(N)=O)NC(=O)[C@H](CCC(=O)O)NC(=O)[C@H](Cc2c[nH]c3ccccc23)NC(=O)[C@H](C(C)C)NC(=O)[C@H](Cc2c[nH]c3ccccc23)NC(=O)[C@H](CCSC)NC(=O)[C@H](C(C)C)NC(=O)[C@H](Cc2c[nH]cn2)NC1=O", "note": "[Compound 39, VEPNCDIHVMWVWECFERLYREL] (Ac-VEPNCDIHVMWVWECFERLYREL-NH2; disulfide 5-15 (inferred))", "IC50": 70},
      {"smiles": "CC[C@H](C)[C@@H]1NC(=O)[C@H](CC(=O)O)NC(=O)[C@@H](NC(=O)[C@H](CC(N)=O)NC(=O)[C@@H]2CCCN2C(=O)[C@H](CCC(=O)O)NC(=O)[C@@H](NC(C)=O)C(C)C)CSSC[C@@H](C(=O)N[C@@H](Cc2ccccc2)C(=O)N[C@@H](CCC(=O)O)C(=O)N[C@@H](CCCNC(=N)N)C(=O)N[C@@H](CC(C)C)C(=O)N[C@@H](CO)C(=O)NCC(=O)NCC(=O)NCC(N)=O)NC(=O)[C@H](CCC(=O)O)NC(=O)[C@H](Cc2c[nH]c3ccccc23)NC(=O)[C@H](C(C)C)NC(=O)[C@H](Cc2c[nH]c3ccccc23)NC(=O)[C@H](CCSC)NC(=O)[C@H](C(C)C)NC(=O)[C@H](Cc2c[nH]cn2)NC1=O", "note": "[Compound 45, VEPNCDIHVMWVWECFERLSGGG] (Ac-VEPNCDIHVMWVWECFERLSGGG-NH2; disulfide 5-15 (inferred))", "IC50": 51},
      {"smiles": "CC[C@H](C)[C@@H]1NC(=O)[C@H](CC(=O)O)NC(=O)[C@@H](NC(=O)[C@H](CC(N)=O)NC(=O)[C@@H]2CCCN2C(=O)[C@H](CCC(=O)O)NC(=O)[C@@H](NC(C)=O)C(C)C)CSSC[C@@H](C(=O)N[C@@H](Cc2ccccc2)C(=O)N[C@@H](CCC(=O)O)C(=O)N[C@@H](CCCNC(=N)N)C(=O)N[C@@H](CC(C)C)C(=O)N[C@@H](Cc2ccc(O)cc2)C(=O)NCC(=O)NCC(N)=O)NC(=O)[C@H](CCC(=O)O)NC(=O)[C@H](Cc2c[nH]c3ccccc23)NC(=O)[C@H](C(C)C)NC(=O)[C@H](Cc2c[nH]c3ccccc23)NC(=O)[C@H](CCSC)NC(=O)[C@H](C(C)C)NC(=O)[C@H](Cc2c[nH]cn2)NC1=O", "note": "[Compound 52, VEPNCDIHVMWVWECFERLYGG] (Ac-VEPNCDIHVMWVWECFERLYGG-NH2; disulfide 5-15 (inferred))", "IC50": 32.3},
      {"smiles": "CC[C@H](C)[C@H](NC(=O)CNC(=O)[C@H](Cc1ccc(O)cc1)NC(=O)[C@H](CC(C)C)NC(=O)[C@H](CCCNC(=N)N)NC(=O)[C@H](CCC(=O)O)NC(=O)[C@H](Cc1ccccc1)NC(=O)[C@@H]1CSSC[C@H](NC(=O)[C@H](CC(N)=O)NC(=O)[C@@H]2CCCN2C(=O)[C@H](CCC(=O)O)NC(=O)[C@@H](NC(C)=O)C(C)C)C(=O)N[C@@H](CC(=O)O)C(=O)N[C@@H]([C@@H](C)CC)C(=O)N[C@@H](Cc2c[nH]cn2)C(=O)N[C@@H](C(C)C)C(=O)N[C@@H](CCSC)C(=O)N[C@@H](Cc2c[nH]c3ccccc23)C(=O)N[C@@H](C(C)C)C(=O)N[C@@H](Cc2c[nH]c3ccccc23)C(=O)N[C@@H](CCC(=O)O)C(=O)N1)C(=O)N[C@@H](CC(C)C)C(N)=O", "note": "[Compound 50, VEPNCDIHVMWVWECFERLYGIL] (Ac-VEPNCDIHVMWVWECFERLYGIL-NH2; disulfide 5-15 (inferred))", "IC50": 34.4},
      {"smiles": "CC[C@H](C)[C@@H]1NC(=O)[C@H](CC(=O)O)NC(=O)[C@@H](NC(=O)[C@H](CC(N)=O)NC(=O)[C@@H]2CCCN2C(=O)[C@H](CCC(=O)O)NC(=O)[C@@H](NC(C)=O)C(C)C)CSSC[C@@H](C(=O)N[C@@H](Cc2ccccc2)C(=O)N[C@@H](CCC(=O)O)C(=O)N[C@@H](CCCNC(=N)N)C(=O)N[C@@H](CC(C)C)C(=O)N[C@@H](Cc2ccc(O)cc2)C(=O)NCC(=O)NCC(=O)N[C@@H](Cc2ccccc2)C(N)=O)NC(=O)[C@H](CCC(=O)O)NC(=O)[C@H](Cc2c[nH]c3ccccc23)NC(=O)[C@H](C(C)C)NC(=O)[C@H](Cc2c[nH]c3ccccc23)NC(=O)[C@H](CCSC)NC(=O)[C@H](C(C)C)NC(=O)[C@H](Cc2c[nH]cn2)NC1=O", "note": "[Compound 56, VEPNCDIHVMWVWECFERLYGGF] (Ac-VEPNCDIHVMWVWECFERLYGGF-NH2; disulfide 5-15 (inferred))", "IC50": 26.2},
      {"smiles": "CC[C@H](C)[C@@H]1NC(=O)[C@H](CC(=O)O)NC(=O)[C@@H](NC(=O)[C@H](CC(N)=O)NC(=O)[C@@H]2CCCN2C(=O)[C@H](CCC(=O)O)NC(=O)[C@@H](NC(C)=O)C(C)C)CSSC[C@@H](C(=O)N[C@@H](Cc2ccccc2)C(=O)N[C@@H](CCC(=O)O)C(=O)N[C@@H](CCCNC(=N)N)C(=O)N[C@@H](CC(C)C)C(=O)N[C@@H](Cc2ccc(O)cc2)C(N)=O)NC(=O)[C@H](CCC(=O)O)NC(=O)[C@H](Cc2c[nH]c3ccccc23)NC(=O)[C@H](C(C)C)NC(=O)[C@H](Cc2c[nH]c3ccccc23)NC(=O)[C@H](CCSC)NC(=O)[C@H](C(C)C)NC(=O)[C@H](Cc2c[nH]cn2)NC1=O", "note": "[Compound 41, VEPNCDIHVMWVWECFERLY] (Ac-VEPNCDIHVMWVWECFERLY-NH2; disulfide 5-15 (inferred))", "IC50": 69.9},
      {"smiles": "CC[C@H](C)[C@@H]1NC(=O)[C@H](CC(=O)O)NC(=O)[C@@H](NC(=O)[C@H](CC(N)=O)NC(=O)[C@@H]2CCCN2C(=O)[C@H](CCC(=O)O)NC(=O)[C@@H](NC(C)=O)C(C)C)CSSC[C@@H](C(=O)N[C@@H](Cc2ccccc2)C(=O)N[C@@H](CCC(=O)O)C(=O)N[C@@H](CCCNC(=N)N)C(=O)N[C@@H](CC(C)C)C(=O)N[C@@H](Cc2ccc(O)cc2)C(=O)NCC(=O)N[C@@H](Cc2c[nH]c3ccccc23)C(=O)NCC(N)=O)NC(=O)[C@H](CCC(=O)O)NC(=O)[C@H](Cc2c[nH]c3ccccc23)NC(=O)[C@H](C(C)C)NC(=O)[C@H](Cc2c[nH]c3ccccc23)NC(=O)[C@H](CCSC)NC(=O)[C@H](C(C)C)NC(=O)[C@H](Cc2c[nH]cn2)NC1=O", "note": "[Compound 42, VEPNCDIHVMWVWECFERLYGWG] (Ac-VEPNCDIHVMWVWECFERLYGWG-NH2; disulfide 5-15 (inferred))", "IC50": 68.2}
    ]}
  ]
}
